Tests used:
Format in all cases: functional
Mus musculus [1] = assay: Antagonism of apomorphine in reserpinized mice when a dose of 33 micro mol/kg is administered intraperitoneally; note: unit not given here
Mus musculus [2] = assay: Antagonism of apomorphine in reserpinized mice when a dose of 0.3 micro mol/kg is administered intraperitoneally; note: unit not given here
Mus musculus [3] = assay: Antagonism of apomorphine for 10-20 minutes in reserpinized mice when a dose of 3.3 micro mol/kg is administered intraperitoneally
Mus musculus [4] = assay: Antagonism of apomorphine for 0-10 minutes in reserpinized mice when a dose of 0.3 micro mol/kg is administered intraperitoneally
Mus musculus [5] = assay: Antagonism of apomorphine for 0-10 minutes in reserpinized mice when a dose of 33 micro mol/kg is administered intraperitoneally
Mus musculus [6] = assay: Ability to stimulate dopaminergic systems by effect on locomotor activity in reserpinized mice when a dose of 33 micro mol/kg is administered intraperitoneally; note: unit not given here
Mus musculus [7] = assay: Antagonism of apomorphine for 0-10 minutes in reserpinized mice when a dose of 3.3 micro mol/kg is administered intraperitoneally
Mus musculus [8] = assay: Ability to stimulate dopaminergic systems by effect on locomotor activity in reserpinized mice when a dose of 0.3 micro mol/kg is administered intraperitoneally; note: unit not given here
Mus musculus [9] = assay: Ability to stimulate dopaminergic systems by effect on locomotor activity in reserpinized mice when a dose of 3.3 micro mol/kg is administered intraperitoneally; note: unit not given here
Mus musculus [10] = assay: Antagonism of apomorphine for 10-20 minutes in reserpinized mice when a dose of 33 micro mol/kg is administered intraperitoneally; note: unit not given here
Mus musculus [11] = assay: Antagonism of apomorphine for 10-20 minutes in reserpinized mice when a dose of 0.3 micro mol/kg is administered intraperitoneally
Mus musculus [12] = assay: Antagonism of apomorphine in reserpinized mice when a dose of 3.3 micro mol/kg is administered intraperitoneally; note: unit not given here

**Q.** What does the source list for `CCCN1CCCC(c2cccc(O)c2)C1` (single isomer, unassigned; (-))?
**A.** Locomotor activity (Mus musculus [1]): 41; Locomotor activity (Mus musculus [2]): 118; Locomotor activity (Mus musculus [3]): 83; Locomotor activity (Mus musculus [4]): 127; Locomotor activity (Mus musculus [5]): 59; Locomotor activity (Mus musculus [6]): 13; Locomotor activity (Mus musculus [7]): 91; Locomotor activity (Mus musculus [8]): 31; Locomotor activity (Mus musculus [9]): 8; Locomotor activity (Mus musculus [10]): 58; Locomotor activity (Mus musculus [11]): 106; Locomotor activity (Mus musculus [12]): 106
